Test results as given in the NIST ThermoML archive (doi:10.1016/j.jct.2013.01.012).

Experiments:
[1] = mn = molality of the nth substance listed, in mol/kg; conditions: 101 kPa, Liquid; for speed of sound: Sing-around technique in a fixed-path interferometer; for mass density: Vibrating tube method
[2] = refractive index (Na D-line) (dimensionless); mn = molality of the nth substance listed, in mol/kg; conditions: 101 kPa, Liquid, Standard Abbe refractometry

O=P([O-])([O-])O.[Na+].[Na+] [disodium hydrogen phosphate] + O
Conditions	mass density, 298.15 K [kg/m3]	mass density, 303.15 K [kg/m3]	mass density, 308.15 K [kg/m3]	refractive index, 298.15 K	refractive index, 303.15 K	refractive index, 308.15 K	speed of sound, 298.15 K [m/s]	speed of sound, 303.15 K [m/s]	speed of sound, 308.15 K [m/s]
[1], m1 = 0.1	1010.86	1009.51	1008.19	–	–	–	1514.6	1526.5	1537
[1], m1 = 0.3	1038.69	1037	1035.61	–	–	–	1549.5	1560.1	1569.8
[1], m1 = 0.5	1066.76	1069.09	1051.41	–	–	–	1583.5	1598.6	1588.7
[1], m1 = 0.7	1096.95	1095.37	1099.82	–	–	–	1621.3	1630	1646.2
[1], m1 = 0.9	1129.62	1128.52	1162.21	–	–	–	1663.2	1672.3	1685.8
[2], m1 = 0.1	–	–	–	1.3354	1.3347	1.3344	–	–	–
[2], m1 = 0.3	–	–	–	1.3408	1.3404	1.3398	–	–	–
[2], m1 = 0.5	–	–	–	1.3457	1.3456	1.3448	–	–	–
[2], m1 = 0.7	–	–	–	1.3512	1.3507	1.3499	–	–	–
[2], m1 = 0.9	–	–	–	1.3562	1.3557	1.3552	–	–	–

O=P([O-])([O-])O.[K+].[K+] [dipotassium hydrogen phosphate] + O
Conditions	mass density, 298.15 K [kg/m3]	mass density, 303.15 K [kg/m3]	mass density, 308.15 K [kg/m3]	refractive index, 298.15 K	refractive index, 303.15 K	refractive index, 308.15 K	speed of sound, 298.15 K [m/s]	speed of sound, 303.15 K [m/s]	speed of sound, 308.15 K [m/s]
[1], m1 = 0.1	1016.33	1015.38	1014.18	–	–	–	1512.8	1525.1	1535.6
[1], m1 = 0.3	1041.48	1040.03	1038.39	–	–	–	1542.9	1553.8	1563.4
[1], m1 = 0.5	1072.35	1071.14	1069.06	–	–	–	1574.6	1584.6	1593.3
[1], m1 = 0.7	1103.77	1103.01	1103.01	–	–	–	1607.3	1616.8	1626
[1], m1 = 0.9	1135.65	1136.16	1134.44	–	–	–	1641.6	1651.1	1657.8
[2], m1 = 0.1	–	–	–	1.3354	1.3346	1.334	–	–	–
[2], m1 = 0.3	–	–	–	1.3404	1.3397	1.3392	–	–	–
[2], m1 = 0.5	–	–	–	1.3456	1.3453	1.3445	–	–	–
[2], m1 = 0.7	–	–	–	1.3506	1.35	1.3495	–	–	–
[2], m1 = 0.9	–	–	–	1.3557	1.3554	1.3547	–	–	–
